Reference: patent US4956463A, “Pyrimidone compound and pharmaceutically acceptable salts thereof” (Ikeda Mohando Company, Ltd., priority 1987, dated 1990)
Read-outs that look alike come from different tables or passages of the source.

Assays:
Ethanol-Induced Ulcer = experiment: Inhibitory Effect on Ethanol-Induced Ulcer; type: in vivo, male Wister rats; conditions: for inhibition in vivo at 30 mg/kg: Rattus norvegicus, po, 1 h, read-out: I.R. of Ethanol-Induced Ulcer
Method: (B) Inhibitory Effect of the Compounds of the Present Invention on Ethanol-Induced Ulcer
This test was performed in the manner similar to the method of Robert A. (Gastroenterology, 1975, Vol. 69, pp. 1045-1047). 30 mg/kg of the compound of this invention was orally administered to male Wister rats having a body weight of about 160 g after 24 hours fasting and after additional 30 minutes, 1 ml/animal of 100% ethanol was orally administered One hour after, the stomach was dissected out and was fixed with formalin, Then, the length of the hemorrhagic ulcers generated at the front portion of the stomach was measured by means of a microscope and these were defined as the coefficient of ulcer (U.C.). [formula]
The results obtained are listed in Table II in which the values found are expressed in the average of 5 measurements.

[1] = test system: Gastric Acid Secretion Accelerated by Histamine in Pylorus-ligated Rats; experiment: Inhibitory Effect on Gastric Acid Secretion by Histamine in Pylorus-ligated Rats; type: in vivo, male Wister rat; conditions: dose 2 mg/kg s.c.; histamine 3 mg/kg s.c. 30 min later; average of 5 measurements; ** P < 0.01 vs control group (all values marked **)
Method: A male Wister rat having a body weight of about 160 g and which had not fed for 24 hours was anesthetized by an intraperitonea dose of 1.2 g/kg of urethane. After ligating of pylorus and esophagus, gaster anterior was incised and fitted with a double polyethylene wall cannula. The wall of the stomach was rinsed with saline (5 ml each) at 30 minutes intervals, and the amount of gastric acid present in the rinsing solution were determined by titration technique.
The basal amount of secreted gastric acid was initially measured three times, then 2 mg/kg of each of compounds of the invention was administered subcutaneously and 3 mg/kg of histamine was subcutaneously administered after the lapse of an additional 30 minutes.
The quantity of gastric acid secreted after the operation was measured continuously for 3 hours. Within that measurement interval, three time points at which the increase in acid secretion reached a maximum level were selected, and the average quantity of gastric acid secreted at those time points was taken as the increase in acid secretion, which was compared with the increase in acid secretion of the control group to calculate the percent inhibition for secretion of gastric acid. [formula]

[2] = 30 mg/kg p.o., 100% ethanol 1 ml/animal p.o. 30 min later, average of 5 measurements, ** P < 0.01 vs control group (Ex. 18 and Cimetidine unmarked)

| Structure (SMILES) | inhibition in vivo at 30 mg/kg (Ethanol-Induced Ulcer; [2]) | Gastric Acid Secretion in Rats, Rate of inhibition [1] | inhibition in vivo at 30 mg/kg (Ethanol-Induced Ulcer) | inhibitory effect for damages with ethanol (Ethanol-Induced Ulcer; in words, as shown in Table II) |
| --- | --- | --- | --- | --- |
| Cc1[nH]c(NC/C=C\COc2cccc(CN3CCCCC3)c2)nc(=O)c1Cc1ccccc1 [Ex. 14, 5-Benzyl-6-methyl-2-[4-<3-(I-piperidinomethyl)-phenoxy>-cis-2-butenylamino]-4-(1H)-pyrimidone] | 87% |  |  |  |
| Cc1[nH]c(NC/C=C\COc2cccc(CN3CCCCC3)c2)nc(=O)c1C [Ex. 3, 5,6-Dimethyl-2-[4-<3-(1-piperidinomethyl)-phenoxy>-cis-2-butenylamino]-4-(1H)-pyrimidone] | 80% | 70% |  |  |
| CCCCCCCCCCCCc1c(C)[nH]c(NC/C=C\COc2cccc(CN3CCCCC3)c2)nc1=O [Ex. 10, 5-Dodecyl-6-methyl-2-[4-<3-(1-piperidinomethyl)-phenoxy>-cis-2-butenylamino]-4-(1H)-pyrimidone] | 73% | 36% |  |  |
| Cc1[nH]c(NC/C=C\COc2cc(CN3CCCCC3)ccn2)nc(=O)c1Cc1ccccc1 [Ex. 13] | 56% |  |  |  |
| CCCc1[nH]c(NC/C=C\COc2cccc(CN3CCCCC3)c2)nc(=O)c1Cc1ccc2c(c1)OCO2 [Ex. 18] | 45% |  |  |  |
| Cc1[nH]c(NC/C=C\COc2cc(CN3CCCCC3)ccn2)nc(=O)c1Cc1ccc2c(c1)OCO2 [Ex. 16, 5-(3,4-methylenedioxy)-benzyl-6-methyl-2-[4-<4-(1-piperidinomethyl)-pyridyl-2-oxy>-cis-2-butenylamino]-4-(1H)-pyrimidone] | 58% |  |  |  |
| CN/C(=N/CCSCc1nc[nH]c1C)NC#N [Cimetidine, reference compound] |  | 70% | -22.4% | not observed |
| Cc1[nH]c(NC/C=C\COc2cc(CN3CCCCC3)ccn2)nc(=O)c1C [Ex. 1, 5,6-Dimethyl-2-[4-<4-(1-piperidinomethyl)-pyridyl-2-oxy>-cis-2-butenylamino]-4-(1H)-pyrimidone] | 65% | 59% |  |  |
| COc1ccc(Cc2c(C)[nH]c(NC/C=C\COc3cccc(CN4CCCCC4)c3)nc2=O)cc1 [Ex. 17, 5-(p-methoxybenzyl)-6-methyl-2-[4-<3-(1-piperidino-methyl)-phenoxy>-cis-2-butenylamino]-4-(1H)-pyrimidone] | 78% |  |  |  |
| CCCCCCCc1c(C)[nH]c(NC/C=C\COc2cccc(CN3CCCCC3)c2)nc1=O [Ex. 7] | 61% |  |  |  |
| Cc1[nH]c(NC/C=C\COc2cc(CN3CCCCC3)ccn2)nc(=O)c1CCc1ccccc1 [Ex. 11, 5-Phenethyl-6-methyl-2-[4-<4-(1-piperidinomethyl)-pyridyl-2-oxy>-cis-2-butenylamino]-4-(1H)-pyrimidone] | 79% | 47% |  |  |
